The results in this text go back to ChEMBL document CHEMBL4359901, “Cyclic enaminone as new chemotype for selective cyclooxygenase-2 inhibitory, anti-inflammatory, and analgesic activities” (Eur J Med Chem, 2019).

The subject of series [1] is Rattus norvegicus. As to the kind of experiment: Antiinflammatory activity in Wistar albino rat assessed as reduction in carrageenan-induced paw edema at 25 mg/kg, ip measured after 1 hr by plethysmometric method (reference value: 1.43 +/- 0.19 ml). Type of series: functional. For orientation: Carrageenan injected into the paw causes an acute inflammation.
Series [2] deals with Rattus norvegicus. The experiment in a line: Antiinflammatory activity in Wistar albino rat assessed as reduction in carrageenan-induced paw edema at 25 mg/kg, ip measured after 2 hrs by plethysmometric method (reference value: 1.58 +/- 0.21 ml). Type of series: functional.
The test system of series [3] is Rattus norvegicus. As to the kind of experiment: Antiinflammatory activity in Wistar albino rat assessed as reduction in carrageenan-induced paw edema at 25 mg/kg, ip measured after 3 hrs by plethysmometric method (reference value: 1.75 +/- 0.33 ml). Type of series: functional.
Series [4] has as its system Rattus norvegicus. As to the kind of experiment: Antiinflammatory activity in Wistar albino rat assessed as reduction in carrageenan-induced paw volume at 12.5 mg/kg, ip measured after 1 hr by plethysmometric method (reference value: 1.43 +/- 0.19 ml). The class given is functional.
The test system of series [5] is Rattus norvegicus. As to the kind of experiment: Antiinflammatory activity in Wistar albino rat assessed as reduction in carrageenan-induced paw volume at 12.5 mg/kg, ip measured after 2 hrs by plethysmometric method (reference value: 1.58 +/- 0.21 ml). The class given is functional.
For series [6], the system named is Rattus norvegicus. The experiment in a line: Antiinflammatory activity in Wistar albino rat assessed as reduction in carrageenan-induced paw volume at 12.5 mg/kg, ip measured after 3 hrs by plethysmometric method (reference value: 1.75 +/- 0.33 ml). Type of series: functional.
The test system of series [7] is Rattus norvegicus. As to the kind of experiment: Analgesic activity in Wistar albino rat assessed as reaction time at 25 mg/kg, ip measured after 30 mins for 15 secs by hot plate method (reference value: 4.21 +/- 0.41 sec). Type of series: functional. On the technique in general: Thermal pain tests record how soon the animal reacts.
The subject of series [8] is Rattus norvegicus. As to the kind of experiment: Analgesic activity in Wistar albino rat assessed as reaction time at 25 mg/kg, ip measured after 60 mins for 15 secs by hot plate method (reference value: 4.67 +/- 0.52 sec). Type of series: functional.
For series [9], the system named is Rattus norvegicus. As to the kind of experiment: Analgesic activity in Wistar albino rat assessed as reaction time at 25 mg/kg, ip measured after 120 mins for 15 secs by hot plate method (reference value: 4.32 +/- 0.52 sec). Type of series: functional.
Series [10] has as its system Rattus norvegicus. The experiment in a line: Analgesic activity in Wistar albino rat assessed as reaction time at 25 mg/kg, ip measured after 180 mins for 15 secs by hot plate method (reference value: 3.87 +/- 0.38 sec). The class given is functional.
The subject of series [11] is Rattus norvegicus. The experiment in a line: Analgesic activity in Wistar albino rat assessed as reaction time at 12.5 mg/kg, ip measured after 30 mins for 15 secs by hot plate method (reference value: 4.21 +/- 0.41 sec). The class given is functional.
The subject of series [12] is Rattus norvegicus. The experiment in a line: Analgesic activity in Wistar albino rat assessed as reaction time at 12.5 mg/kg, ip measured after 60 mins for 15 secs by hot plate method (reference value: 4.67 +/- 0.52 sec). The class given is functional.
In series [13] the test system is Rattus norvegicus. As to the kind of experiment: Analgesic activity in Wistar albino rat assessed as reaction time at 12.5 mg/kg, ip measured after 120 mins for 15 secs by hot plate method (reference value: 4.32 +/- 0.52 sec). The class given is functional.
Series [14] concerns Rattus norvegicus. The experiment in a line: Analgesic activity in Wistar albino rat assessed as reaction time at 12.5 mg/kg, ip measured after 180 mins for 15 secs by hot plate method (reference value: 3.87 +/- 0.38 sec). Type of series: functional.
Series [15] relates to Rattus norvegicus. The experiment in a line: Antiinflammatory activity in Sprague-Dawley rat model of carrageenan-induced thermal hyperalgesia assessed as paw withdrawal latency time at 50 mg/kg, po administered 1 hr prior to carrageenan challenge and measured after 1 hr by planter test (reference value: 8.88 +/- 0.52 sec). The class given is functional.
In series [16] the test system is Rattus norvegicus. The experiment in a line: Antiinflammatory activity in Sprague-Dawley rat model of carrageenan-induced thermal hyperalgesia assessed as paw withdrawal latency time at 50 mg/kg, po administered 1 hr prior to carrageenan challenge and measured after 2 hrs by planter test (reference value: 6.17 +/- 0.58 sec). Type of series: functional.
Series [17] deals with Rattus norvegicus. The experiment in a line: Antiinflammatory activity in Sprague-Dawley rat model of carrageenan-induced thermal hyperalgesia assessed as paw withdrawal latency time at 50 mg/kg, po administered 1 hr prior to carrageenan challenge and measured after 3 hrs by planter test (reference value: 4.13 +/- 0.45 sec). Type of series: functional.
Series [18] concerns Rattus norvegicus. As to the kind of experiment: Antiinflammatory activity in Sprague-Dawley rat model of carrageenan-induced thermal hyperalgesia assessed as paw withdrawal latency time at 50 mg/kg, po administered 1 hr prior to carrageenan challenge and measured after 4 hrs by planter test (reference value: 5.47 +/- 0.84 sec). Type of series: functional.
Series [19] concerns Rattus norvegicus. The experiment in a line: Antiinflammatory activity in Sprague-Dawley rat model of carrageenan-induced thermal hyperalgesia assessed as paw withdrawal latency time at 50 mg/kg, po administered 1 hr prior to carrageenan challenge and measured after 5 hrs by planter test (reference value: 7.5 +/- 0.74 sec). Type of series: functional.
For series [20], the system named is Rattus norvegicus. As to the kind of experiment: Antiinflammatory activity in Sprague-Dawley rat model of carrageenan-induced thermal hyperalgesia assessed as paw withdrawal latency pressure at 50 mg/kg, po administered 1 hr prior to carrageenan challenge and measured after 1 hr by Von-frey test (reference value: 159.88 +/- 4.66 g). Type of series: functional.

The subject of series [21] is Rattus norvegicus. The experiment in a line: Antiinflammatory activity in Sprague-Dawley rat model of carrageenan-induced thermal hyperalgesia assessed as paw withdrawal latency pressure at 50 mg/kg, po administered 1 hr prior to carrageenan challenge and measured after 2 hrs by Von-frey test (reference value: 146.47 +/- 5.12 g). The class given is functional.
For series [22], the system named is Rattus norvegicus. As to the kind of experiment: Antiinflammatory activity in Sprague-Dawley rat model of carrageenan-induced thermal hyperalgesia assessed as paw withdrawal latency pressure at 50 mg/kg, po administered 1 hr prior to carrageenan challenge and measured after 3 hrs by Von-frey test (reference value: 31.65 +/- 3.33 g). The class given is functional.

In series [23] the test system is Rattus norvegicus. The experiment in a line: Antiinflammatory activity in Sprague-Dawley rat model of carrageenan-induced thermal hyperalgesia assessed as paw withdrawal latency pressure at 50 mg/kg, po administered 1 hr prior to carrageenan challenge and measured after 3 hrs by Von-frey test (reference value: 146.61 +/- 1.58 g). Type of series: functional.
Series [24] concerns Rattus norvegicus. The experiment in a line: Antiinflammatory activity in Sprague-Dawley rat model of carrageenan-induced thermal hyperalgesia assessed as paw withdrawal latency pressure at 50 mg/kg, po administered 1 hr prior to carrageenan challenge and measured after 5 hrs by Von-frey test (reference value: 169.58 +/- 4.26 g). The class given is functional.
For series [25], the system named is Rattus norvegicus. The experiment in a line: Antiinflammatory activity in Sprague-Dawley rat model of carrageenan-induced thermal hyperalgesia assessed as paw withdrawal latency pressure at 50 mg/kg, po administered 1 hr prior to carrageenan challenge and measured after 2 hrs by Randall-Selitto test (reference value: 231.13 +/- 3.15 g). The class given is functional.

The test system of series [26] is Rattus norvegicus. The experiment in a line: Antiinflammatory activity in Sprague-Dawley rat model of carrageenan-induced thermal hyperalgesia assessed as paw withdrawal latency pressure at 50 mg/kg, po administered 1 hr prior to carrageenan challenge and measured after 3 hrs by Randall-Selitto test (reference value: 176.84 +/- 8.1 g). Type of series: functional.

Series [27] concerns Rattus norvegicus. As to the kind of experiment: Antiinflammatory activity in Sprague-Dawley rat model of carrageenan-induced thermal hyperalgesia assessed as paw withdrawal latency pressure at 50 mg/kg, po administered 1 hr prior to carrageenan challenge and measured after 3 hrs by Randall-Selitto test (reference value: […] g). Type of series: functional.
For series [28], the system named is Rattus norvegicus. As to the kind of experiment: Antiinflammatory activity in Sprague-Dawley rat model of carrageenan-induced thermal hyperalgesia assessed as paw withdrawal latency pressure at 50 mg/kg, po administered 1 hr prior to carrageenan challenge and measured after 1 hr by Randall-Selitto test (reference value: 246.55 +/- 1.05 g). The class given is functional.

Series [29] can be described thus: Ulcerogenicity in Sprague-Dawley rat assessed as formation of ulcer at 20 mg/kg, po after 1 hr by microscopic analysis. The note with it: in vivo. Type of series: toxicity, organism-based.

Consider `Cc1ccc(-c2cc(C(F)(F)F)nn2-c2ccc(S(N)(=O)=O)cc2)cc1` [CELECOXIB], for which the Activity is 1.3 mL in the series with Rattus norvegicus [1]; 1.23 mL in the series on Rattus norvegicus [2]; 1.16 mL with Rattus norvegicus [3]; 1.34 mL in the series on Rattus norvegicus [4]; 1.38 mL with Rattus norvegicus [5]; 1.36 mL in the series on Rattus norvegicus [6]. In addition, the Activity in the series on Rattus norvegicus [20] was 176.45 g; with Rattus norvegicus [21] it was 176.63 g; with Rattus norvegicus [22], 176.87 g; with Rattus norvegicus [23] it was 176.87 g; in the series on Rattus norvegicus [24], 180.82 g; in the series with Rattus norvegicus [25], 273.46 g. In addition, the Activity in the series with Rattus norvegicus [26] was 270.66 g; with Rattus norvegicus [27], 269.55 g; in the series on Rattus norvegicus [28] it was 270.89 g. The Time in the series with Rattus norvegicus [7] is listed as 6.34 s; with Rattus norvegicus [8] it was 8.93 s; in the series on Rattus norvegicus [9], 12.08 s; in the series with Rattus norvegicus [10], 10.87 s; with Rattus norvegicus [11], 5.75 s; with Rattus norvegicus [12] it was 8.93 s. In addition, the Time in the series with Rattus norvegicus [13] was determined as 10.98 s; in the series with Rattus norvegicus [14], 9.92 s; in the series with Rattus norvegicus [15], 11.54 s; in the series on Rattus norvegicus [16] it was 10.98 s; with Rattus norvegicus [17] it was 9.48 s; in the series on Rattus norvegicus [18], 8.36 s. For the same compound, in the series with Rattus norvegicus [19], the Time stood at 9.22 s.
Take `COc1ccc2c(c1)c(CC(=O)O)c(C)n2C(=O)c1ccc(Cl)cc1` [INDOMETHACIN]: in series [29], the Activity result is reported as “Toxic”.
